Measurements from ChEMBL document CHEMBL4808172, “Structure-Activity Relationship of Heterocyclic P2Y14 Receptor Antagonists: Removal of the Zwitterionic Character with Piperidine Bioisosteres” (J Med Chem, 2021).
Converted amounts (≈) assume the structure as drawn. “And” between values parts separate entries of the source, which are not always exact repeats. Equal entries are not always repeated. The source made the active and inactive calls. The rule behind the calls is not given here.

Key:
[1] = Aqueous solubility of compound at pH 7.4; assay type: physicochemical; conditions: buffer
[2] = Aqueous solubility of compound at pH 4.0; assay type: physicochemical; conditions: buffer
Translocator protein = Translocator protein (Homo sapiens, UniProt P30536); test: Binding affinity to TSPO (unknown origin)
Translocator protein, sequence (P30536 whole entry): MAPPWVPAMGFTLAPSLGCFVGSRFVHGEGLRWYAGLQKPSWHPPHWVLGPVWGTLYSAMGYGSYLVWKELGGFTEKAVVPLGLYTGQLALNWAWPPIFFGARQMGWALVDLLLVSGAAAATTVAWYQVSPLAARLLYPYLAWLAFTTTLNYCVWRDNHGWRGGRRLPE

Histamine H1 receptor = Histamine H1 receptor (Homo sapiens, UniProt P35367); test: Binding affinity to H1 receptor (unknown origin)
Histamine H1 receptor, sequence (P35367 whole entry): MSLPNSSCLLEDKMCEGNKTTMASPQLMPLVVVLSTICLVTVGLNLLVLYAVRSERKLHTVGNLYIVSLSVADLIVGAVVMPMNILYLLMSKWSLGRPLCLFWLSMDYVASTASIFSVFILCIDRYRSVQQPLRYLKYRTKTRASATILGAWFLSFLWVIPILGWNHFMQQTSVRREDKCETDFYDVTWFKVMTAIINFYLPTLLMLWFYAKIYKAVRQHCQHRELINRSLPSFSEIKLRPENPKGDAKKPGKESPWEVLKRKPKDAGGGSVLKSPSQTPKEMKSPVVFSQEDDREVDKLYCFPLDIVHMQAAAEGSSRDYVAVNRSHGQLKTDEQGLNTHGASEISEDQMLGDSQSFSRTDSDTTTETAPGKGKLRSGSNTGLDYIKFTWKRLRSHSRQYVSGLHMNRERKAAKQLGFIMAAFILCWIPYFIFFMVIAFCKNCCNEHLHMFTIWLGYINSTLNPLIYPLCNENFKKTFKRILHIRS

[3] = biological target: Sigma intracellular receptor 2 (Homo sapiens, UniProt Q5BJF2); test: Binding affinity to sigma 2 receptor (unknown origin)
Sigma intracellular receptor 2, sequence (Q5BJF2 whole entry): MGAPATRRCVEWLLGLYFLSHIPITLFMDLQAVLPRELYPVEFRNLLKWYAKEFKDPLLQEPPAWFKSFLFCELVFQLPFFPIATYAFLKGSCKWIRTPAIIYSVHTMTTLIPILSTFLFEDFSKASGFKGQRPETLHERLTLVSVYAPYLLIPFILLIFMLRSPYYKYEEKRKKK

[4] = biological target: Delta-type opioid receptor (Homo sapiens, UniProt P41143); test: Binding affinity to DOR (unknown origin)
Delta-type opioid receptor, sequence (P41143 whole entry): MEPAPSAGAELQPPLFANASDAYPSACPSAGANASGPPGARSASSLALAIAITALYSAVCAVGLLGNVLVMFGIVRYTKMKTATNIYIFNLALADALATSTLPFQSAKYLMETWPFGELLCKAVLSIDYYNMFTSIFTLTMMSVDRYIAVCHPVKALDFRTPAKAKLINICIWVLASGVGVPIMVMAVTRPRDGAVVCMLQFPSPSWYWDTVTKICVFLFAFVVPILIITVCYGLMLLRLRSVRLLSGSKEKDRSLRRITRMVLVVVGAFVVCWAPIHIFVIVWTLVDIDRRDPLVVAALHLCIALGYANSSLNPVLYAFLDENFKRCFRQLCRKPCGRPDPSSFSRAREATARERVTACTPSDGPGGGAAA

[5] = biological target: Sigma non-opioid intracellular receptor 1 (Homo sapiens, UniProt Q99720); test: Binding affinity to sigma 1 receptor (unknown origin)
Sigma non-opioid intracellular receptor 1, sequence (Q99720 whole entry): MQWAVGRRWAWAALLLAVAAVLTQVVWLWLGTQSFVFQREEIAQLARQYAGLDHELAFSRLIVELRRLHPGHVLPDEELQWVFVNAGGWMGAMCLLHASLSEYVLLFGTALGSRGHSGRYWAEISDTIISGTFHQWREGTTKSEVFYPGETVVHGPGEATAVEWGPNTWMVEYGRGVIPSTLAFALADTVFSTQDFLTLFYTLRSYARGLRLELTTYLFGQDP

Mus musculus [6] = test: Antiinflammatory activity in mouse model of ovalbumin/Aspergillus-induced allergic asthma assessed as reduction in eosinophil counts in BALF at 20 umol/kg, ip administered 30 mins prior to allergen challenge and measured after 2 days post challenge; assay type: functional, organism-based; conditions: dose 20.0 µmol/kg, time 2.0 day
[7] = biological target: Voltage-gated inwardly rectifying potassium channel KCNH2 (Homo sapiens, UniProt Q12809)
Voltage-gated inwardly rectifying potassium channel KCNH2, sequence (Q12809 whole entry): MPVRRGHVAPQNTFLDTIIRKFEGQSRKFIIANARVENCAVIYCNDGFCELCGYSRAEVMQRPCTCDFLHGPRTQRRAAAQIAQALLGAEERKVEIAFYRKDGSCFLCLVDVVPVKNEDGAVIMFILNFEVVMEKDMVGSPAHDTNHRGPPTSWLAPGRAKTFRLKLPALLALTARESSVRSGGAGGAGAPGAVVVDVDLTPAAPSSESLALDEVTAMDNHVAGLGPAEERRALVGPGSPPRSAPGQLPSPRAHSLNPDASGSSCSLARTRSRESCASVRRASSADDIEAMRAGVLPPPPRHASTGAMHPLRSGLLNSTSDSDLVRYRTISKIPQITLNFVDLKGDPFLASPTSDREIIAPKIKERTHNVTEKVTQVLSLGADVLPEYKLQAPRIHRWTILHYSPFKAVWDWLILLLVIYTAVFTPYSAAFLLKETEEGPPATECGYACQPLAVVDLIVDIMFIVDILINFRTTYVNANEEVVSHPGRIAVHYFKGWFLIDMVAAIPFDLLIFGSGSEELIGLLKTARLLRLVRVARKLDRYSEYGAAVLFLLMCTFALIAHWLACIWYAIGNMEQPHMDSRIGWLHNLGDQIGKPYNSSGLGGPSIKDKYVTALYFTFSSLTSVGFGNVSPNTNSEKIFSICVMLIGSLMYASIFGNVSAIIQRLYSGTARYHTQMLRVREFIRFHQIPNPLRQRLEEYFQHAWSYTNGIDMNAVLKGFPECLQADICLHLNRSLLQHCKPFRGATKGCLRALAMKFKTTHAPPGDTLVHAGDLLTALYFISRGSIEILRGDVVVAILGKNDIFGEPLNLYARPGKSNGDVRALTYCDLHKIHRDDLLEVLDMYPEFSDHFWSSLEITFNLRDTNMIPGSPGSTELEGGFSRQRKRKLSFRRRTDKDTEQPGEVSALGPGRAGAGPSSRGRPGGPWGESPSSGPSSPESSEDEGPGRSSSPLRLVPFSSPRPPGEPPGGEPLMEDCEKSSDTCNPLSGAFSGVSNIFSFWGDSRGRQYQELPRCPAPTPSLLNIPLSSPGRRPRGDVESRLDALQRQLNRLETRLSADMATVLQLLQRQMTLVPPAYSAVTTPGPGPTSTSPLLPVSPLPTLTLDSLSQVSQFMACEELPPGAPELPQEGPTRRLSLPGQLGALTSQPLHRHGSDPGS

liver carboxylesterase [8] = biological target: T1, liver carboxylesterase (Sus scrofa, UniProt Q29550); test: Drug metabolism in pH 7.5 HEPES buffer assessed as porcine liver esterase-mediated compound hydrolysis by measuring half life measured up to 72 hrs by HPLC analysis; assay type: ADME, tissue-based; conditions: pig
T1 sequence (Q29550 whole entry): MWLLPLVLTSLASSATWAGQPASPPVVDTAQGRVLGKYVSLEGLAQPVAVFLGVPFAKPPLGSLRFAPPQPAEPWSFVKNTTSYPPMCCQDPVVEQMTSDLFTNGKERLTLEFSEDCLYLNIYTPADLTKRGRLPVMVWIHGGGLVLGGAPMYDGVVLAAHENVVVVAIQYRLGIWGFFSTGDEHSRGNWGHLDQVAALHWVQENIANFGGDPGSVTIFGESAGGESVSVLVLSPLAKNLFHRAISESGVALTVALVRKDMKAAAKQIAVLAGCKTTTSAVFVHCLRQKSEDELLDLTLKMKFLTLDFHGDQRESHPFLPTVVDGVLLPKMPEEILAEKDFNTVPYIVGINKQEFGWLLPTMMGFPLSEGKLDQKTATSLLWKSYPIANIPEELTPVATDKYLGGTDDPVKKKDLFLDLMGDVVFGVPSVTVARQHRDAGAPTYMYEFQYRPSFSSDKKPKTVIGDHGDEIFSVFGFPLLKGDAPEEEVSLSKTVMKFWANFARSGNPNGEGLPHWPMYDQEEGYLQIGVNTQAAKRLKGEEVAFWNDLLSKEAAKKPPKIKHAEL

liver carboxylesterase [9] = biological target: T1, liver carboxylesterase; test: Drug metabolism in pH 7.5 HEPES buffer assessed as porcine liver esterase-mediated compound hydrolysis measured up to 72 hrs by HPLC analysis; assay type: ADME; conditions: pig, read-out: Drug degradation
[10] = Stability of compound in aqueous medium after 24 hrs in absence of PLE by HPLC analysis; assay type: physicochemical; conditions: buffer
[11] = Bioavailability in Wistar rat at 0.5 mg/kg, iv measured upto 24 hrs by HPLC-MS/MS method; assay type: ADME, organism-based; conditions: in vivo
[12] = Stability of compound in stimulated intestinal fluid assessed as half life; assay type: ADME; conditions: simulated gi fluid
[13] = Stability of compound in stimulated gastric fluid assessed as half life; assay type: ADME; conditions: simulated gi fluid
[14] = Stability in rat plasma assessed as half life; assay type: ADME, cell-free
[15] = Stability in mouse plasma assessed as half life; assay type: ADME, cell-free
[16] = Microsomal stability in human liver microsomes assessed as half life; assay type: ADME, Microsome
[17] = Microsomal stability in rat liver microsomes assessed as half life; assay type: ADME, Microsome
[18] = Microsomal stability in mouse liver microsomes assessed as half life; assay type: ADME, Microsome
HepG2 = test: Cytotoxicity against human HepG2 cells; assay type: cell-based
[19] = AUC (0 to infinity) in Wistar rat at 1 mg/kg, ip measured upto 24 hrs by HPLC-MS/MS method; assay type: ADME, organism-based; design: route intraperitoneal, dose 1 mg/kg, time <=24; conditions: in vivo
[20] = Elimination rate constant in Wistar rat at 0.5 mg/kg, iv measured upto 24 hrs by HPLC-MS/MS method; assay type: ADME, organism-based; conditions: in vivo
[21] = Elimination rate constant in Wistar rat at 1 mg/kg, ip measured upto 24 hrs by HPLC-MS/MS method; assay type: ADME, organism-based; conditions: in vivo
[22] = Elimination rate constant in Wistar rat at 3 mg/kg, ip measured upto 24 hrs by HPLC-MS/MS method; assay type: ADME, organism-based; conditions: in vivo
[23] = Elimination rate constant in Wistar rat at 10 mg/kg, ip measured upto 24 hrs by HPLC-MS/MS method; assay type: ADME, organism-based; conditions: in vivo
[24] = Bioavailability in Wistar rat at 1 mg/kg, ip measured upto 24 hrs by HPLC-MS/MS method; assay type: ADME, organism-based; conditions: in vivo
[25] = Bioavailability in Wistar rat at 3 mg/kg, ip measured upto 24 hrs by HPLC-MS/MS method; assay type: ADME, organism-based; conditions: in vivo
[26] = Bioavailability in Wistar rat at 10 mg/kg, ip measured upto 24 hrs by HPLC-MS/MS method; assay type: ADME, organism-based; conditions: in vivo
[27] = Clearance in Wistar rat at 1 mg/kg, ip measured upto 24 hrs by HPLC-MS/MS method; assay type: ADME, organism-based; conditions: in vivo
[28] = Clearance in Wistar rat at 3 mg/kg, ip measured upto 24 hrs by HPLC-MS/MS method; assay type: ADME, organism-based; conditions: in vivo
[29] = Clearance in Wistar rat at 10 mg/kg, ip measured upto 24 hrs by HPLC-MS/MS method; assay type: ADME, organism-based; conditions: in vivo
Mus musculus [30] = test: Reversal of CCI-induced mechano-allodynia in mouse model of neuropathic pain at 10 umol/kg, ip after 2 hrs; assay type: functional, organism-based; conditions: dose 10.0 µmol/kg
Mus musculus [31] = test: Reversal of CCI-induced mechano-allodynia in mouse model of neuropathic pain at 10 umol/kg, ip measured after 3 to 5 hrs; assay type: functional, organism-based; conditions: dose 10.0 µmol/kg, time 3-5 hrs
[32] = Toxicity in mouse at 10 umol/kg, ip; conditions: in vivo, dose 10 µmol/kg

For `O=C(O)c1cc(-c2ccc(-c3cc(CO)on3)cc2)cc(-n2cc(-c3ccc(C(F)(F)F)cc3)nn2)c1`, the solubility [1] was 3.72 ug ml-1 and 7.34 uM, the solubility [2] was 0.6 µg/mL (≈ 1.18 µM) and the Ki (Translocator protein) was 0.751 µM. For the same compound, the Ki (Histamine H1 receptor) was 2.65 µM.
In the case of `O=C(O)c1cc(-c2ccc(-c3nnn[nH]3)cc2)cc(-n2cc(-c3ccc(C(F)(F)F)cc3)nn2)c1`, the Ki [3] is reported as 2.26 µM and the Ki [4] is reported as 3.3 µM.
Compound `O=C(O)c1cc(-c2ccc(NC(=O)C3CCNCC3)cc2)cc(-n2cc(-c3ccc(C(F)(F)F)cc3)nn2)c1` has a Ki [5] of 2.33 µM and a Ki [4] of 2 µM.
For `O=C(O)c1cc(-c2ccc(C3CCNCC3)cc2)c2ccc(-c3ccc(C(F)(F)F)cc3)cc2c1` [PPTN], the Activity (Mus musculus [6]) was “Active” and the EC50 [7] was greater than 30 µM.
Work on `CC(=O)N1CCC(c2ccc(-c3cc(C(=O)OCC(=O)N(C)C)cc4cc(-c5ccc(C(F)(F)F)cc5)ccc34)cc2)CC1` yielded a Ki [3] of 0.59 µM, a half-life (liver carboxylesterase [8]) greater than 72 h and a metabolised at 72 h (liver carboxylesterase [9]) of 27.2%. For the same compound, the Stabilty [10] was “Stable” and the Activity (Mus musculus [6]) was “Active”.
With `O=C(O)c1cc(-c2ccc(-c3cc(CO)on3)cc2)c2ccc(-c3ccc(C(F)(F)F)cc3)cc2c1` the F [11] was 100%, the solubility [1] was 2.43 ug ml-1 and 4.96 uM and the Ki [5] was 2.68 µM. The Ki [3] was 4.78 µM, the Ki (Translocator protein) was 4.63 µM and the t1/2 [12] was greater than 4 h. The t1/2 [13] was 2.68 h, the t1/2 [14] was greater than 4 h and the t1/2 [15] was greater than 4 h. For the same compound, the t1/2 [16] was greater than 4 h, the t1/2 [17] was 0.795 h and the t1/2 [18] was greater than 4 h. It also gave an IC50 (HepG2) of 8.47 µM, an AUC [19] of 0.7 µg·h/mL and a k el at 24 h [20] of 0.000281 s⁻¹. For the same compound, the k el at 24 h [21] was 2.67e-05 s⁻¹, the k el at 24 h [22] was 4.11e-05 s⁻¹ and the k el at 24 h [23] was 6.47e-05 s⁻¹. The F [24] was 139%, the F [25] was 147% and the F [26] was 105%. For the same compound, the CL/F [27] was 1.43 L/h/kg, the CL/F [28] was 1.42 L/h/kg and the CL/F [29] was 2.03 L/h/kg. For the same compound, the Activity (Mus musculus [30]) was “inactive”, the Activity (Mus musculus [31]) was “inactive” and the Activity [32] was “Non-Toxic”.
